In the supplement of paper PMC11821682:

Key:
[1] = system: Danio rerio embryo; experiment: LEL larval photomotor response dark phase 120 hpf
Method: (§1)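 ZBEscreen: dechorionated Tropical 5D zebrafish embryos were exposed from 4 hpf in 96-well plates (1% DMSO, 28 °C). All compounds were first tested at 100 µM; hits were retested at 0.005-100 µM. Morphology and mortality were scored at 120 hpf and fitted as BMC10 (3-parameter log-logistic, extra risk). The embryonic photomotor response at 24 hpf and the larval photomotor response at 120 hpf are given as lowest effect levels (K-S test, p<0.01). NA = not significant up to 100 µM; NT = not tested.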

[2] = system: HL-60; experiment: Cell Health Index (toxicity pseudo-probability over dose series) (index 0-1); higher = more cytotoxic / cell stress;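 also: HL-60 cells exposed 4 h at 37 °C to ten threefold dilutions spanning 5 nM to 100 µM, multiparametric flow cytometry features scored by machine-learning classification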
[3] = system: Danio rerio embryo; experiment: BMC10 any morphological effect or mortality at 120 hpf; higher = less toxic
[4] = system: Danio rerio embryo; experiment: LEL embryonic photomotor response 24 hpf
Method: as §1

CC(C)c1nc(CN(C)C(=O)N[C@@H](CCN2CCOCC2)C(=O)N[C@H](CC[C@H](Cc2ccccc2)NC(=O)OCc2cncs2)Cc2ccccc2)cs1 [Cobicistat]
LEL larval photomotor response dark phase 120 hpf [1]: > 100 µM | Cell Health Index [2]: 0.831 | BMC10 any morphological effect or mortality [3]: > 100 µM | LEL embryonic photomotor response 24 hpf [4]: > 100 µM

Cl.N=c1ccn2c(n1)O[C@H]1[C@H](O)[C@@H](CO)O[C@H]12 [Cyclocytidine]
LEL larval photomotor response dark phase 120 hpf [1]: > 100 µM | Cell Health Index [2]: 0.207 | BMC10 any morphological effect or mortality [3]: > 100 µM | LEL embryonic photomotor response 24 hpf [4]: > 100 µM

C/C=C/C[C@@H](C)[C@@H](O)[C@H]1C(=O)N[C@@H]([C@@H](C)O)C(=O)N(C)CC(=O)N(C)[C@@H](CC(C)C)C(=O)N[C@@H](C(C)C)C(=O)N(C)[C@@H](CC(C)C)C(=O)N[C@@H](C)C(=O)N[C@H](C)C(=O)N(C)[C@@H](CC(C)C)C(=O)N(C)[C@@H](CC(C)C)C(=O)N(C)[C@@H](C(C)C)C(=O)N1C [Cyclosporin C]
LEL larval photomotor response dark phase 120 hpf [1]: 3.7 µM | Cell Health Index [2]: 0.918 | BMC10 any morphological effect or mortality [3]: > 100 µM | LEL embryonic photomotor response 24 hpf [4]: 33.3 µM

S=C([S-])OC1CC2CC1C1CCCC21.[K+] (stereo not given) [D609 parent]
LEL larval photomotor response dark phase 120 hpf [1]: > 100 µM | Cell Health Index [2]: 0.277 | BMC10 any morphological effect or mortality [3]: > 100 µM | LEL embryonic photomotor response 24 hpf [4]: > 100 µM

C[C@H](NC(=O)Cc1cc(F)cc(F)c1)C(=O)N[C@@H]1C(=O)N(C)c2ccccc2-c2ccccc21 [DBZ]
LEL larval photomotor response dark phase 120 hpf [1]: 0.41 µM | Cell Health Index [2]: 0.293 | BMC10 any morphological effect or mortality [3]: 0.365 µM | LEL embryonic photomotor response 24 hpf [4]: 11.1 µM

C[C@@H]1CCO[C@H]2Cn3cc(C(=O)NCc4ccc(F)cc4F)c(=O)c(O)c3C(=O)N12 [Dolutegravir]
LEL larval photomotor response dark phase 120 hpf [1]: > 100 µM | Cell Health Index [2]: 0.167 | BMC10 any morphological effect or mortality [3]: > 100 µM | LEL embryonic photomotor response 24 hpf [4]: > 100 µM

CC(C)C[C@H](NC(=O)[C@H]1O[C@@H]1C(=O)O)C(=O)NCCCCNC(=N)N [E-64]
LEL larval photomotor response dark phase 120 hpf [1]: > 100 µM | Cell Health Index [2]: 0.121 | BMC10 any morphological effect or mortality [3]: > 100 µM | LEL embryonic photomotor response 24 hpf [4]: > 100 µM

Cc1cc(C#N)cc(C)c1Oc1nc(Nc2ccc(C#N)cc2)nc(N)c1Br [Etravirine]
LEL larval photomotor response dark phase 120 hpf [1]: > 100 µM | Cell Health Index [2]: 0.898 | BMC10 any morphological effect or mortality [3]: > 100 µM | LEL embryonic photomotor response 24 hpf [4]: > 100 µM

COc1ccc(-c2coc3cc(O)ccc3c2=O)cc1 [Formononetin]
LEL larval photomotor response dark phase 120 hpf [1]: > 100 µM | Cell Health Index [2]: 0.288 | BMC10 any morphological effect or mortality [3]: 23 µM | LEL embryonic photomotor response 24 hpf [4]: 100 µM

O=C(NCc1ccco1)c1ccc2c(c1)N(Cc1c(F)cccc1Cl)C(=O)CS2 [G10]
LEL larval photomotor response dark phase 120 hpf [1]: > 100 µM | Cell Health Index [2]: 0.311 | BMC10 any morphological effect or mortality [3]: > 100 µM | LEL embryonic photomotor response 24 hpf [4]: 11.1 µM

O=c1c(O)cc([C@H]2Oc3cc(O)cc(O)c3C[C@H]2O)cc2c([C@H]3Oc4cc(O)cc(O)c4C[C@H]3O)cc(O)c(O)c12 [Theaflavin]
Cell Health Index [2]: 0.752 | BMC10 any morphological effect or mortality [3]: > 100 µM

Nc1nc(S)c2nc[nH]c2n1 [Thioguanine]
Cell Health Index [2]: 0.294 | BMC10 any morphological effect or mortality [3]: > 100 µM

C[C@@H]1CCN(C(=O)CC#N)C[C@@H]1N(C)c1ncnc2[nH]ccc12.O=C(O)CC(O)(CC(=O)O)C(=O)O [Tofacitinib]
Cell Health Index [2]: 0.228 | BMC10 any morphological effect or mortality [3]: > 100 µM

O=c1[nH]c(=O)n([C@H]2C[C@H](O)[C@@H](CO)O2)cc1C(F)(F)F [Trifluorothymidine]
Cell Health Index [2]: 0.138 | BMC10 any morphological effect or mortality [3]: > 100 µM

C[n+]1cccc(C(=O)O)c1.[Cl-] [Trigonelline]
Cell Health Index [2]: 0.15 | BMC10 any morphological effect or mortality [3]: > 100 µM

O=C(CCc1ccc(O)cc1)c1c(O)cc(O[C@@H]2O[C@H](CO)[C@@H](O)[C@H](O)[C@H]2O)cc1O [Trilobatin]
Cell Health Index [2]: 0.183 | BMC10 any morphological effect or mortality [3]: > 100 µM

COc1cc(C(=O)NCc2ccc(OCCN(C)C)cc2)cc(OC)c1OC.Cl [Trimethobenzamide]
Cell Health Index [2]: 0.194 | BMC10 any morphological effect or mortality [3]: > 100 µM

Cc1ccc2c(=O)c3cccc(CC(=O)O)c3oc2c1C [Vadimezan]
Cell Health Index [2]: 0.169 | BMC10 any morphological effect or mortality [3]: > 100 µM

CC(C)[C@H](N)C(=O)OCCOCn1cnc2c(=O)nc(N)[nH]c21.Cl [Valacyclovir]
Cell Health Index [2]: 0.145 | BMC10 any morphological effect or mortality [3]: > 100 µM

CC(C)[C@H](N)C(=O)OCC(CO)OCn1cnc2c(=O)nc(N)[nH]c21.Cl (stereo not given in full) [Valganciclovir]
Cell Health Index [2]: 0.247 | BMC10 any morphological effect or mortality [3]: > 100 µM

CCCC(CCC)C(=O)O [Valproic acid]
Cell Health Index [2]: 0.188 | BMC10 any morphological effect or mortality [3]: > 100 µM

COC[C@H]1C[C@@H](c2ncc(-c3ccc4c(c3)COc3cc5c(ccc6nc([C@@H]7CC[C@H](C)N7C(=O)[C@@H](NC(=O)OC)C(C)C)[nH]c65)cc3-4)[nH]2)N(C(=O)[C@H](NC(=O)OC)c2ccccc2)C1 [Velpatasvir]
Cell Health Index [2]: 0.286 | BMC10 any morphological effect or mortality [3]: > 100 µM

C[C@@H]1O[C@@H](O[C@@H]2[C@@H](O)[C@H](OCCc3ccc(O)c(O)c3)O[C@H](CO)[C@H]2OC(=O)/C=C/c2ccc(O)c(O)c2)[C@H](O)[C@H](O)[C@H]1O [Verbascoside]
Cell Health Index [2]: 0.843 | BMC10 any morphological effect or mortality [3]: > 100 µM

Nc1ncnc2c1ncn2[C@@H]1O[C@H](CO)[C@@H](O)[C@@H]1O [Vidarabine]
Cell Health Index [2]: 0.234 | BMC10 any morphological effect or mortality [3]: > 100 µM

CCOC(=O)CN[C@@H](C(=O)N1CC[C@H]1C(=O)NCc1ccc(C(=N)NO)cc1)C1CCCCC1 [Ximelagatran]
Cell Health Index [2]: 0.193 | BMC10 any morphological effect or mortality [3]: > 100 µM

COC(=O)CC[C@H](NC(=O)[C@H](C)NC(=O)OCc1ccccc1)C(=O)N[C@H](C(=O)N[C@@H](CC(=O)OC)C(=O)CF)C(C)C [Z-AEVD-FMK]
Cell Health Index [2]: 0.179 | BMC10 any morphological effect or mortality [3]: > 100 µM

O=C(O)C[C@H](NC(=O)OCc1ccccc1)C(=O)COC(=O)c1c(Cl)cccc1Cl [Z-Asp-CH2-DCB]
Cell Health Index [2]: 0.212 | BMC10 any morphological effect or mortality [3]: > 100 µM

Nc1ccn([C@H]2CC[C@@H](CO)O2)c(=O)n1 [Zalcitabine]
Cell Health Index [2]: 0.193 | BMC10 any morphological effect or mortality [3]: > 100 µM

CC(=O)N[C@H]1[C@H]([C@H](O)[C@H](O)CO)OC(C(=O)O)=C[C@@H]1NC(=N)N [Zanamivir]
Cell Health Index [2]: 0.22 | BMC10 any morphological effect or mortality [3]: > 100 µM

Cc1cn([C@H]2C[C@H](N=[N+]=[N-])[C@@H](CO)O2)c(=O)[nH]c1=O [Zidovudine]
Cell Health Index [2]: 0.17 | BMC10 any morphological effect or mortality [3]: > 100 µM
